Patent publication US20130245081A1, “Compositions and Methods for Treating Amyotrophic Lateral Sclerosis” (priority 2009, published 2013)
Where “and” joins values, the source holds several entries; their conditions need not be identical. Identical values can stand only once. Like-named read-outs stand apart in the source and are kept apart here.

What was measured:
healthy adult subjects = system: healthy adult subjects
Protocol: In both studies, safety was assessed by periodic measurement of vital signs, 12-lead ECGs, physical examinations, clinical laboratory parameters, and reports of adverse events. Baseline vital signs and changes from baseline were summarized with descriptive statistics by body position (supine or standing), dose level, and time point. Additionally, the number of subjects with substantial increases or decreases in blood pressure (>20 mmHg) and heart rate (>15 bpm) were tabulated by dose level and visit. The arithmetic mean of 3 readings of blood pressure and heart rate at each visit/position was used for the analysis. The shift from baseline for physical examination results was tabulated by body system, visit, and dose level. The overall ECG findings were summarized using a shift table comparing post-baseline visits to baseline. Laboratory parameters were summarized at each timepoint, including changes from baseline by dose level. In addition, abnormal values outside normal ranges were flagged. All safety data were summarized with descriptive statistics by dose group.
In the first study, subjects remained in the clinic for 72 hours after dosing, during which time they were monitored for safety and tolerability, and later returned to the clinic for a brief follow-up visit 7 days post-dose for clinical and laboratory assessments. In the second study, end-of-treatment evaluations were performed on Day 9, approximately 48 hours after the final dose, and subjects were discharged from the clinic for an outpatient visit on Day 10 and a follow-up visit on Day 14.

clinical = details: human, in vivo
Protocol: Pharmacokinetic analyses were based on data from 20 subjects in the 25 mg Q12H (n=8), 75 mg Q12H (n=8), and 150 mg Q12H (n=4) groups.

patients with ALS = details: for subjects who died (incl. after discontinuation): double-blind period through Week 28; for total number of deaths: first 24-week randomized active treatment period

CCCN[C@@H]1CCc2nc(N)sc2C1 [dexpramipexole, (6R)-2-amino-4,5,6,7-tetrahydro-6-(propylamino)benzothiazole]
functional affinity difference between pramipexole and dexpramipexole (dopamine receptor): 10,000-20,000 fold
drug effect on vital signs, physical examinations, ECG, hematology and urinalysis (healthy adult subjects; either study): no evidence
serious adverse events or adverse events that led to early discontinuation (healthy adult subjects; either study): No serious adverse events
subjects reporting dizziness (healthy adult subjects; first study): 3 subjects
subjects reporting headache (healthy adult subjects; second study): 5 subjects
safety and tolerability (healthy adult subjects; single doses up to 300 mg, multiple doses up to 150 mg twice daily for 4½ days): safe and well tolerated
dose linearity of pharmacokinetics (clinical): linear
Tmax (clinical; 25 mg): 1.77 h
Tmax (clinical; 75 mg): 1.82 h
Tmax (clinical; 150 mg): 1.7 h
half-life (clinical; 150 mg): 6.63 to 8.73 h
Unadjusted Slope Estimate, Bulbar (patients with ALS; 50 mg): −0.364
Unadjusted Slope Estimate, Fine (patients with ALS; 50 mg): −0.311
Unadjusted Slope Estimate, Gross (patients with ALS; 50 mg): −0.305
Unadjusted Slope Estimate, Resp (patients with ALS; 50 mg): −0.270
Zero Imputation Slope Estimate, Bulbar (patients with ALS; 50 mg): −0.578
Zero Imputation Slope Estimate, Fine (patients with ALS; 50 mg): −0.440
Zero Imputation Slope Estimate, Gross (patients with ALS; 50 mg): −0.390
Zero Imputation Slope Estimate, Resp (patients with ALS; 50 mg): −0.575
joint rank test of survival and ALSFRS-R (generalized Gehan Wilcoxon test) (patients with ALS; 50 mg versus 300 mg, through Week 28, p=0.046): statistically significant difference
McGill SIS, Mean (SE) (patients with ALS; 50 mg, Endpoint of Part 2): 5.9 (0.38)
McGill SIS, Mean Δ (SE) from baseline (patients with ALS; 50 mg, Endpoint of Part 2): −0.5 (0.27)
McGill SIS, Median Δ (patients with ALS; 50 mg, Endpoint of Part 2): 0.0
Upright Vital Capacity, Mean (SE) (patients with ALS; 50 mg, Endpoint of Part 2): 62.2 (4.19) % predicted
Upright Vital Capacity, Mean Δ (SE) from baseline of Part 2 (patients with ALS; 50 mg, Endpoint of Part 2): −14.6 (3.54) % predicted
Upright Vital Capacity, Median Δ (patients with ALS; 50 mg, Endpoint of Part 2): −11.5 % predicted
McGill SIS, Mean (SE) (patients with ALS; 50 mg, Week 8): 6.2 (0.37)
McGill SIS, Mean Δ (SE) from baseline (patients with ALS; 50 mg, Week 8): −0.2 (0.19)
McGill SIS, Median Δ (patients with ALS; 50 mg, Week 8): 0.0
Upright Vital Capacity, Mean (SE) (patients with ALS; 50 mg, Week 8): 73.7 (2.92) % predicted
Upright Vital Capacity, Mean Δ (SE) from baseline of Part 2 (patients with ALS; 50 mg, Week 8): −3.2 (1.67) % predicted
Upright Vital Capacity, Median Δ (patients with ALS; 50 mg, Week 8): −1.9 % predicted
McGill SIS, Mean (SE) (patients with ALS; 50 mg, Week 12): 6.5 (0.34)
McGill SIS, Mean Δ (SE) from baseline (patients with ALS; 50 mg, Week 12): −0.1 (0.20)
McGill SIS, Median Δ (patients with ALS; 50 mg, Week 12): 0.0
Upright Vital Capacity, Mean (SE) (patients with ALS; 50 mg, Week 12): 72.9 (3.82) % predicted
Upright Vital Capacity, Mean Δ (SE) from baseline of Part 2 (patients with ALS; 50 mg, Week 12): −4.0 (2.19) % predicted
Upright Vital Capacity, Median Δ (patients with ALS; 50 mg, Week 12): −3.1 % predicted
McGill SIS, Mean (SE) (patients with ALS; 50 mg, Week 16): 6.1 (0.37)
McGill SIS, Mean Δ (SE) from baseline (patients with ALS; 50 mg, Week 16): −0.3 (0.22)
McGill SIS, Median Δ (patients with ALS; 50 mg, Week 16): 0.0
McGill SIS, Mean (SE) (patients with ALS; 50 mg, Week 20): 6.1 (0.33)
McGill SIS, Mean Δ (SE) from baseline (patients with ALS; 50 mg, Week 20): −0.7 (0.22)
McGill SIS, Median Δ (patients with ALS; 50 mg, Week 20): −1.0
Upright Vital Capacity, Mean (SE) (patients with ALS; 50 mg, Week 20): 75.8 (4.02) % predicted
Upright Vital Capacity, Mean Δ (SE) from baseline of Part 2 (patients with ALS; 50 mg, Week 20): −6.0 (3.36) % predicted
Upright Vital Capacity, Median Δ (patients with ALS; 50 mg, Week 20): −7.2 % predicted
McGill SIS, Mean (SE) (patients with ALS; 50 mg, Week 24): 6.3 (0.43)
McGill SIS, Mean Δ (SE) from baseline (patients with ALS; 50 mg, Week 24): −0.4 (0.23)
McGill SIS, Median Δ (patients with ALS; 50 mg, Week 24): 0.0
McGill SIS, Mean (SE) (patients with ALS; 50 mg, Week 28): 5.9 (0.45)
McGill SIS, Mean Δ (SE) from baseline (patients with ALS; 50 mg, Week 28): −0.7 (0.23)
McGill SIS, Median Δ (patients with ALS; 50 mg, Week 28): 0.0
Upright Vital Capacity, Mean (SE) (patients with ALS; 50 mg, Week 28): 69.5 (3.79) % predicted
Upright Vital Capacity, Mean Δ (SE) from baseline of Part 2 (patients with ALS; 50 mg, Week 28): −12.4 % predicted and −12.4 (3.00) % predicted
Upright Vital Capacity, Median Δ (patients with ALS; 50 mg, Week 28): −10.4 % predicted
decline in ALSFRS-R scores (repeated measures mixed effect model) (patients with ALS; 50 mg, Week 28): −7.05
subjects who died (incl. after discontinuation) (patients with ALS; 50 mg): 9 (19%) N (%) and 9 N (%)
total number of deaths (patients with ALS; 50 mg): 7
did not require tracheostomy and did not die (patients with ALS; 50 mg, through Week 28): 81%
mean change from baseline in ALSFRS-R total score (patients with ALS; 50 mg, through Week 28): −6.5
slope estimate of ALSFRS-R scores (linear mixed effects model) (patients with ALS; 50 mg, through Week 28): −1.283
slope of ALSFRS-R total scores, zero imputed for first post-death visit (patients with ALS; 50 mg, through Week 28): −2.05
slope of upright vital capacity (linear mixed effects, unadjusted) (patients with ALS; 50 mg, through Week 28): −2.452
subjects with feeding tubes placed (patients with ALS; 50 mg, through Week 28): 9 (19%) N (%)
Unadjusted Slope Estimate, Bulbar (patients with ALS; 300 mg): −0.310
Unadjusted Slope Estimate, Fine (patients with ALS; 300 mg): −0.211
Unadjusted Slope Estimate, Gross (patients with ALS; 300 mg): −0.320
Unadjusted Slope Estimate, Resp (patients with ALS; 300 mg): −0.186
Zero Imputation Slope Estimate, Bulbar (patients with ALS; 300 mg): −0.376
Zero Imputation Slope Estimate, Fine (patients with ALS; 300 mg): −0.238
Zero Imputation Slope Estimate, Gross (patients with ALS; 300 mg): −0.338
Zero Imputation Slope Estimate, Resp (patients with ALS; 300 mg): −0.255
attenuation of decline in vital capacity (adjusted slopes) (patients with ALS; 300 mg compared with 50 mg): 21% and 18%
Unadjusted Slope Estimate, Bulbar, % reduction (patients with ALS; 300 mg vs 50 mg): 14.84%
Unadjusted Slope Estimate, Fine, % reduction (patients with ALS; 300 mg vs 50 mg): 32.15%
Unadjusted Slope Estimate, Gross, % reduction (patients with ALS; 300 mg vs 50 mg): −4.92%
Unadjusted Slope Estimate, Resp, % reduction (patients with ALS; 300 mg vs 50 mg): 31.11%
Zero Imputation Slope Estimate, Bulbar, % reduction (patients with ALS; 300 mg vs 50 mg): 34.95%
Zero Imputation Slope Estimate, Fine, % reduction (patients with ALS; 300 mg vs 50 mg): 45.91%
Zero Imputation Slope Estimate, Gross, % reduction (patients with ALS; 300 mg vs 50 mg): 13.33%
Zero Imputation Slope Estimate, Resp, % reduction (patients with ALS; 300 mg vs 50 mg): 55.65%
reduction in decline of ALSFRS-R slope, zero imputation (patients with ALS; 300 mg vs 50 mg): 42%
smaller decline in ALSFRS-R scores (repeated measures model) (patients with ALS; 300 mg vs 50 mg, Week 28): 19.7%
McGill SIS, Mean (SE) (patients with ALS; 300 mg, Endpoint of Part 2): 6.1 (0.35)
McGill SIS, Mean Δ (SE) from baseline (patients with ALS; 300 mg, Endpoint of Part 2): −0.8 (0.30)
McGill SIS, Median Δ (patients with ALS; 300 mg, Endpoint of Part 2): −1.0
Upright Vital Capacity, Mean (SE) (patients with ALS; 300 mg, Endpoint of Part 2): 61.1 (3.94) % predicted
Upright Vital Capacity, Mean Δ (SE) from baseline of Part 2 (patients with ALS; 300 mg, Endpoint of Part 2): −20.3 (2.88) % predicted
Upright Vital Capacity, Median Δ (patients with ALS; 300 mg, Endpoint of Part 2): −14.3 % predicted
McGill SIS, Mean (SE) (patients with ALS; 300 mg, Week 8): 6.9 (0.32)
McGill SIS, Median Δ (patients with ALS; 300 mg, Week 8): 0.0
Upright Vital Capacity, Mean (SE) (patients with ALS; 300 mg, Week 8): 80.3 (3.20) % predicted
Upright Vital Capacity, Mean Δ (SE) from baseline of Part 2 (patients with ALS; 300 mg, Week 8): −1.4 (0.91) % predicted
Upright Vital Capacity, Median Δ (patients with ALS; 300 mg, Week 8): −0.8 % predicted
McGill SIS, Mean (SE) (patients with ALS; 300 mg, Week 12): 6.5 (0.37)
McGill SIS, Mean Δ (SE) from baseline (patients with ALS; 300 mg, Week 12): −0.4 (0.25)
McGill SIS, Median Δ (patients with ALS; 300 mg, Week 12): 0.0
Upright Vital Capacity, Mean (SE) (patients with ALS; 300 mg, Week 12): 78.5 (3.34) % predicted
Upright Vital Capacity, Mean Δ (SE) from baseline of Part 2 (patients with ALS; 300 mg, Week 12): −4.2 (1.91) % predicted
Upright Vital Capacity, Median Δ (patients with ALS; 300 mg, Week 12): −4.3 % predicted
McGill SIS, Mean (SE) (patients with ALS; 300 mg, Week 16): 6.4 (0.33)
McGill SIS, Mean Δ (SE) from baseline (patients with ALS; 300 mg, Week 16): −0.4 (0.23)
McGill SIS, Median Δ (patients with ALS; 300 mg, Week 16): 0.0
McGill SIS, Mean (SE) (patients with ALS; 300 mg, Week 20): 6.4 (0.34)
McGill SIS, Mean Δ (SE) from baseline (patients with ALS; 300 mg, Week 20): −0.5 (0.30)
McGill SIS, Median Δ (patients with ALS; 300 mg, Week 20): 0.0
Upright Vital Capacity, Mean (SE) (patients with ALS; 300 mg, Week 20): 70.8 (3.77) % predicted
Upright Vital Capacity, Mean Δ (SE) from baseline of Part 2 (patients with ALS; 300 mg, Week 20): −10.6 (1.58) % predicted
Upright Vital Capacity, Median Δ (patients with ALS; 300 mg, Week 20): −9.0 % predicted
McGill SIS, Mean (SE) (patients with ALS; 300 mg, Week 24): 6.3 (0.36)
McGill SIS, Mean Δ (SE) from baseline (patients with ALS; 300 mg, Week 24): −0.7 (0.30)
McGill SIS, Median Δ (patients with ALS; 300 mg, Week 24): 0.0
McGill SIS, Mean (SE) (patients with ALS; 300 mg, Week 28): 6.0 (0.38)
McGill SIS, Mean Δ (SE) from baseline (patients with ALS; 300 mg, Week 28): −0.9 (0.31)
McGill SIS, Median Δ (patients with ALS; 300 mg, Week 28): −1.0
Upright Vital Capacity, Mean (SE) (patients with ALS; 300 mg, Week 28): 67.3 (4.44) % predicted
Upright Vital Capacity, Mean Δ (SE) from baseline of Part 2 (patients with ALS; 300 mg, Week 28): −15.1 % predicted and −15.1 (2.63) % predicted
Upright Vital Capacity, Median Δ (patients with ALS; 300 mg, Week 28): −11.5 % predicted
decline in ALSFRS-R scores (repeated measures mixed effect model) (patients with ALS; 300 mg, Week 28): −5.66
subjects who died (incl. after discontinuation) (patients with ALS; 300 mg): 3 (7%) N (%) and 3 N (%)
total number of deaths (patients with ALS; 300 mg): 2
did not require tracheostomy and did not die (patients with ALS; 300 mg, through Week 28): 93%
mean change from baseline in ALSFRS-R total score (patients with ALS; 300 mg, through Week 28): −6.2
slope estimate of ALSFRS-R scores (linear mixed effects model) (patients with ALS; 300 mg, through Week 28): −1.021
slope of ALSFRS-R total scores, zero imputed for first post-death visit (patients with ALS; 300 mg, through Week 28): −1.19
slope of upright vital capacity (linear mixed effects, unadjusted) (patients with ALS; 300 mg, through Week 28): −3.067
subjects with feeding tubes placed (patients with ALS; 300 mg, through Week 28): 6 (14%) N (%)
